Laboratory results as given in patent US20250186325A1, “COMPOSITIONS OF ASCORBIC ACID SALTS” (SHISEIDO COMPANY, LTD., priority 2023, published 2025).

Experiment: Assay of SAP and AA2G by HPLC (ascorbic acid derivative loss)
Type: physicochemical
Conditions: in FL#1, HPLC
From the text: The amount of ascorbic acid derivative content in a composition can be determined using a wide range of techniques including, but not limited to: titrimetric, spectrophotometric, electrochemical, fluorimetric, enzymatic and chromatographic. Methods for determining ascorbic acid derivative content in a topical composition can be complicated/confounded by the presence of excipients or other antioxidant agents (e.g., agents for stabilizing Vitamin C), as well as degradation products. Of the above-listed methods, high performance liquid chromatography may be preferred. See, A M Maia et al., “Validation of HPLC stability-indicating method for Vitamin C in semisolid pharmaceutical/cosmetic preparations . . . ” Talanta Vol. 71, pp. 639-643 (2007).
In addition, an assay of SAP and AA2G were analyzed by HPLC.

Compound: O=C1O[C@H]([C@@H](O)CO)C(O)=C1O[C@H]1O[C@H](CO)[C@@H](O)[C@H](O)[C@H]1O [AA2G, ascorbyl glucoside]
- % Loss @25° C. (4 weeks) (25° C.): −1.00%
- % Loss @37° C. (4 weeks) (37° C.): −1.00%
- % Loss @40° C. (4 weeks) (40° C.): −1.00%
- % Loss @45° C. (4 weeks) (45° C.): 0%
